The results in this text go back to patent publication US6525188B2, “Nuclear retinoic acid co-receptor” (Karo Bio Ab, priority 1994, dated 2003).

The subject of this experiment is RXR / OR-1 on a DR4-containing promoter. Kind of experiment: PAP reporter gene under DR4-containing promoter, transfected embryonal carcinoma P19 EC cells. The settings on record: 100 nM 9-cis retinoic acid, 36 h, PAP activity.

Protocol: Embryonal carcinoma P19 EC cells were cultured in Dulbecco's modified Eagle's medium supplemented with 10% foetal calf serum, nonessential amino acids, penicillin (100 units/ml) and streptomycin (100 mg/ml). […] Cells were plated in duplicate in 35 mm Petri dishes and transfected at 30% confluency, using lipofectin reagent (Bethesada Research Laboratories, USA) according to the recommendations of the supplier.
Transfections were repeated 6 times with different plasmid preparations and data from a representative experiment is presented here.
Since OR-1 and RXR formed a specific complex on the DR4 sequence in vitro, coexpression of OR-1 in embryonal carcinoma (EC) cells that express endogenous RXR was tested to determine whether it could affect the activity of a reporter gene under the control of a DR4-containing promoter.

Turning to `CC1=C(/C=C/C(C)=C\C=C\C(C)=C\C(=O)O)C(C)(C)CCC1` [9-cis retinoic acid], where the note is “EC cells with endogenous RXR, OR-1 expressed”, the “activation of RXR on a DR4-containing promoter” value is on record as “activation”. For the same compound, the “induction of RXR on a reporter containing DR4” value (embryonal carcinoma (EC) cells with endogenous RXR, without OR-1 expression) is recorded as “no induction”.
